Assay results reported in US7999119B2, “Compounds having CRTH2 antagonist activity” (Oxagen Limited, priority 2006, dated 2011).
Where “and” joins values, the source holds several entries; their conditions need not be identical. Equal values may be shown once. Read-outs that look alike come from different tables or passages of the source. Blank lines part the entries; values can stand above or below the compound they belong to.

Legend:
[1] = test system: PGD2 induced eosinophil shape change; experiment: Human whole blood eosinophil shape change assay; type: cell-based
Description: Human Whole Blood Eosinophil Shape Change Assay
Compounds 1 to 3 were assayed for their effect on PGD2 induced eosinophil shape change and were compared with Comparator Compounds A to G.
Shape Change Assay in Whole Blood
Compounds (1 μl, 200× final concentration) were added directly to 200 μl whole blood, mixed well and incubated for 15 min, 37° C., 5% CO2. After this time, cell shape was fixed by addition of 300 μl Cytofix™ buffer (BD Biosciences), 15 min on ice. 10 ml RBC lysis buffer was added to the fixed cells, incubated 5 min, at room temperature and centrifuged, 300×g for 5 min. Supernatant (containing lysed red cells) was removed and the lysis step was repeated. Leukocytes were resuspended in 250 μl RPMI/10% FCS and shape change analysed by FACS. Eosinophils were gated out based on their autofluorescence and 2000 eosinophil events were counted per sample. Data were analysed in triplicate.

[2] = test system: DK-PGD2-induced blood eosinophilia; experiment: Inhibition of DK-PGD2-induced blood eosinophilia in rats; type: in vivo, rat; conditions: female rats, oral dosing 30 min before 10 μg DK-PGD2 intracardiac; ED50 from dose-response curve; the values are: ED50
Description: Evaluation of Compounds of General Formula (I) as Inhibitors of 13,14-dihydro-15-keto prostaglandin D2 (DK-PGD2)-Induced Blood Eosinophilia in Rats
The test compound was dissolved in DMSO and diluted with water to give a final dosing volume of 2 ml/kg.
Female rats (175-250 g; UH colony) were dosed orally with test compound (or vehicle).
30 min after dosing all animals were anaesthetised with isoflurane.
Following induction of anaesthesia, animals receive an intracardiac injection of 10 μg DK-PGD2 in 0.3 ml heparinised (10 U/ml) saline. Control animals received an injection of 0.3 ml heparinised saline.
60 min after the intracardiac injection, animals were injected with an overdose of pentobarbitone sodium and a blood sample was taken (into heparin) by cardiac puncture while the rat was anaesthetised but not dead.
An aliquot of blood (100 μl) was added to Turk's solution and the total leukocyte count determined with a haemocytometer.
A further aliquot of blood (500 μl) was mixed with an equal volume of 4% Dextran (mw 500,000) and the erythrocytes allowed to settle. A cytospin preparation was made from the resulting leukocyte rich fraction.
Cytospin preparations were fixed with methanol (5 min) and stained with May-Grunwald (5 min) and Giemsa (15 min) stains. Finally cytospins were washed in phosphate buffer (pH6.8) and air dried.
Differential leukocyte counts were obtained from the cytospin preparations.
Blood eosinophil numbers were determined from the total leukocyte count and the percentage eosinophils (differential count).
Because it was impractical to generate sufficient data in any given experiment, data were obtained over a number of replicate experiments. Data from these replicate experiments were pooled, to provide at least 5 animals in each group and a dose-response curve fitted following a significance test (Mann Whitney) to determine whether or not DK-PGD2 caused a significant increase in blood eosinophils (GraphPad, Prism). A difference between groups was taken to be significant when P<0.05. ED50 values were calculated from the dose-response curve.

[3] = Pharmacokinetics following oral administration in the rat; type: in vivo; conditions: for AUC(0-inf) / Cmax / Tmax / half-life / AUCinf / T½: 3 mg/kg p.o
Description: Investigation of Pharmacokinetics of Compounds of General Formula (I) Following Oral Administration in the Rat
Rats were weighed on the day of dosing.
The test material was prepared as a 0.3 mg/mL suspension in 1% carboxy-methyl-cellulose (CMC).
Three groups of 3 rats were dosed as follows:
Doses were administered as a single oral dose using a gavage tube at a constant dose volume of 10 mL/kg.
At each sampling time point blood samples (approximately 0.3 mL) was taken from a catheter inserted into a lateral tail vein prior to the start of the experiment. The final blood sample (approximately 2 mL) from each animal was taken by cardiac puncture under isoflurane anaesthesia following which the animal was killed by exsanguination. Blood samples were taken into individual heparinised containers. Blood samples were collected at the following times post-dose:
Following collection, the blood samples were centrifuged (approximately 10,000×g, 2 min at 4° C.) and the plasma stored as one aliquot at approximately −20° C. pending analysis of drug concentrations by LC-MS/MS.
The plasma samples were analysed for test material concentrations at BioDynamics using an LC-MS/MS method developed at BioDynamics.

[4] = Homo sapiens, Eosinophil, 10 nm PGD2-induced eosinophil shape change, human whole blood, read-out: Whole Blood IC50
[5] = Homo sapiens, Eosinophil, Table 12 summary of whole blood eosinophil shape change IC50, read-out: IC50 (μmol)
[6] = male, rat, plasma, po, 3 mg/kg, rat, 3 mg/kg oral, 0.25 h, individual male animals, read-out: Concentration in Blood
[7] = male, rat, plasma, po, 3 mg/kg, rat, 3 mg/kg oral, 0.25 h, mean, read-out: Concentration in Blood, Mean
[8] = male, rat, plasma, po, 3 mg/kg, rat, 3 mg/kg oral, 0.5 h, individual male animals, read-out: Concentration in Blood
[9] = male, rat, plasma, po, 3 mg/kg, rat, 3 mg/kg oral, 0.5 h, mean, read-out: Concentration in Blood, Mean
[10] = male, rat, plasma, po, 3 mg/kg, rat, 3 mg/kg oral, 1 h, individual male animals, read-out: Concentration in Blood
[11] = male, rat, plasma, po, 3 mg/kg, rat, 3 mg/kg oral, 1 h, mean, read-out: Concentration in Blood, Mean
[12] = male, rat, plasma, po, 3 mg/kg, rat, 3 mg/kg oral, 2 h, individual male animals, read-out: Concentration in Blood
[13] = male, rat, plasma, po, 3 mg/kg, rat, 3 mg/kg oral, 2 h, mean, read-out: Concentration in Blood, Mean
[14] = male, rat, plasma, po, 3 mg/kg, rat, 3 mg/kg oral, 4 h, individual male animals, read-out: Concentration in Blood
[15] = male, rat, plasma, po, 3 mg/kg, rat, 3 mg/kg oral, 4 h, mean, read-out: Concentration in Blood, Mean
[16] = male, rat, plasma, po, 3 mg/kg, rat, 3 mg/kg oral, 6 h, mean, read-out: Concentration in Blood, Mean
[17] = male, rat, plasma, po, 3 mg/kg, rat, 3 mg/kg oral, 8 h, mean, read-out: Concentration in Blood, Mean
[18] = male, rat, plasma, po, 3 mg/kg, rat, 3 mg/kg oral, 12 h, mean, read-out: Concentration in Blood, Mean
[19] = male, rat, plasma, po, 3 mg/kg, rat, individual male animals, read-out: AUCinf
[20] = male, rat, plasma, po, 3 mg/kg, rat, individual male animals, read-out: Cmax
[21] = male, rat, plasma, po, 3 mg/kg, rat, individual male animals, read-out: Tmax
[22] = male, rat, plasma, po, 3 mg/kg, rat, mean, summary without unit (Table 12), read-out: AUCinf (mean)
[23] = male, rat, plasma, po, 3 mg/kg, rat, mean, summary without unit (Table 12), read-out: Cmax (mean)
[24] = male, rat, plasma, po, 3 mg/kg, rat, mean, read-out: AUCinf, Mean
[25] = male, rat, plasma, po, 3 mg/kg, rat, mean, read-out: Cmax, Mean
[26] = male, rat, plasma, po, 3 mg/kg, rat, mean, read-out: Tmax, Mean
[27] = male, rat, plasma, po, 3 mg/kg, rat, mean, read-out: T½, Mean (converted)
[28] = rat, 3 mg/kg oral, 0.25 h, individual male animals, 3 mg/kg
[29] = rat, 3 mg/kg oral, 0.5 h, individual male animals, 3 mg/kg
[30] = rat, 3 mg/kg oral, 1 h, individual male animals, 3 mg/kg
[31] = rat, 3 mg/kg oral, 2 h, individual male animals, 3 mg/kg
[32] = rat, 3 mg/kg oral, 4 h, individual male animals, 3 mg/kg
[33] = rat, 3 mg/kg oral, 6 h, individual male animals, 3 mg/kg
[34] = rat, 3 mg/kg oral, 8 h, individual male animals, 3 mg/kg
[35] = rat, 3 mg/kg oral, 12 h, individual male animals, 3 mg/kg
[36] = rat, 3 mg/kg oral, 24 h, individual male animals, 3 mg/kg
[37] = rat, individual male animals, 3 mg/kg

IC50 [1, 4]: 5 nM
IC50 [1, 5]: 5 nM
IC50 ([1]; whole blood eosinophil shape change IC50 converted to ng/mL): 2.2 ng/mL
concentration at 0.25 h [3, 6]: 1160 ng/mL
concentration at 0.25 h [3, 7]: 1450 ng/mL
concentration at 0.5 h [3, 8]: 2680 ng/mL
concentration at 0.5 h [3, 9]: 2910 ng/mL
concentration at 1 h [3, 10]: 3840 ng/mL
concentration at 1 h [3, 11]: 4000 ng/mL
concentration at 2 h [3, 12]: 4330 ng/mL
concentration at 2 h [3, 13]: 3950 ng/mL
concentration at 4 h [3, 14]: 1890 ng/mL
concentration at 4 h [3, 15]: 1540 ng/mL
concentration at 6 h [3, 16]: 1050 ng/mL
concentration at 8 h [3, 17]: 734 ng/mL
concentration at 12 h ([3]; male, rat, plasma, po, 3 mg/kg, rat, 3 mg/kg oral, 12 h, individual male animals, read-out: Concentration in Blood): 455 ng/mL
concentration at 12 h [3, 18]: 375 ng/mL
concentration at 24 h ([3]; male, rat, plasma, po, 3 mg/kg, rat, 3 mg/kg oral, 24 h, mean, read-out: Concentration in Blood, Mean): 47.4 ng/mL
AUC(0-inf) [3, 19]: 23800 ng·h/mL
Cmax [3, 20]: 4330 ng/mL
Tmax [3, 21]: 2 h
half-life ([3]; male, rat, plasma, po, 3 mg/kg, rat, individual male animals, read-out: T½ (converted)): 4.11 h
AUC(0-inf) [3, 22]: 19200 ng·h/mL
Cmax [3, 23]: 4160 ng/mL
AUC(0-inf) [3, 24]: 19300 ng·h/mL
Cmax [3, 25]: 4160 ng/mL
Tmax [3, 26]: 1.3 h
half-life [3, 27]: 3.6 h
Fold over IC50 at 12 h ([3]; mean blood concentration at 12 h (rat, 3 mg/kg p.o.) divided by whole blood IC50 in ng/ml): 170
Concentration in Blood [3, 28]: 1496.0 ng/mL and 1678.0 ng/mL
Concentration in Blood [3, 29]: 2792.4 ng/mL and 3264.7 ng/mL
Concentration in Blood [3, 30]: 3895.3 ng/mL and 4262.9 ng/mL
Concentration in Blood [3, 31]: 3454.7 ng/mL and 4051.1 ng/mL
Concentration in Blood [3, 32]: 1046.5 ng/mL and 1670.8 ng/mL
Concentration in Blood [3, 35]: 256.6 ng/mL and 412.8 ng/mL
Concentration in Blood [3, 36]: 68.5 ng/mL and 10.2 ng/mL and 63.5 ng/mL
AUCinf [3, 37]: 14846 ng·h/mL and 21731 ng·h/mL
Cmax [3, 37]: 3895 ng/mL and 4263 ng/mL
Tmax [3, 37]: 1 h
T½ [3, 37]: 3.07 h and 4.59 h
SMILES: Cc1c(Cc2ccccc2S(=O)(=O)c2ccccc2)c2cc(F)ccc2n1CC(=O)O [Compound 1, 2-(5-fluoro-2-methyl-3-(2-(phenylsulfonyl)benzyl)-1H-indol-1-yl)acetic acid]
Potency in inhibition of DK-PGD2-induced blood eosinophilia [2]: 2.5 µg/kg
Concentration in Blood [3, 33]: 1423.7 ng/mL and 547.5 ng/mL and 1183.1 ng/mL
Concentration in Blood [3, 34]: 1099.9 ng/mL and 404.7 ng/mL and 696.2 ng/mL

IC50 [1, 4]: 2 nM
IC50 [1, 5]: 2 nM
IC50 ([1]; Homo sapiens, Eosinophil, whole blood eosinophil shape change IC50 converted to ng/mL, read-out: IC50): 0.9 ng/mL
IC50 ([1]; Homo sapiens, Eosinophil, read-out: IC50 in the whole blood eosinophil shape change assay): 2 nM
concentration at 0.25 h [3, 6]: 1570 ng/mL
concentration at 0.25 h [3, 7]: 1490 ng/mL
concentration at 0.5 h [3, 8]: 2610 ng/mL
concentration at 0.5 h [3, 9]: 2220 ng/mL
concentration at 1 h [3, 10]: 2960 ng/mL
concentration at 1 h [3, 11]: 2900 ng/mL
concentration at 2 h [3, 12]: 2240 ng/mL
concentration at 2 h [3, 13]: 2500 ng/mL
concentration at 4 h [3, 14]: 1130 ng/mL
concentration at 4 h [3, 15]: 1370 ng/mL
concentration at 6 h [3, 16]: 640 ng/mL
concentration at 8 h [3, 17]: 450 ng/mL
concentration at 12 h [3, 18]: 100 ng/mL
AUC(0-inf) [3, 19]: 13200 ng·h/mL
Cmax [3, 20]: 2960 ng/mL
Tmax [3, 21]: 1 h
AUC(0-inf) [3, 22]: 11700 ng·h/mL
Cmax [3, 23]: 2950 ng/mL
AUC(0-inf) [3, 24]: 11700 ng·h/mL
Cmax [3, 25]: 2950 ng/mL
Tmax [3, 26]: 1.3 h
half-life [3, 27]: 3.7 h
Concentration in Blood [3, 28]: 1297.7 ng/mL and 1608.1 ng/mL
Concentration in Blood [3, 29]: 1770.2 ng/mL and 2276.6 ng/mL
Concentration in Blood [3, 30]: 2367.1 ng/mL and 3366.1 ng/mL
Concentration in Blood [3, 31]: 2536.9 ng/mL and 2717.6 ng/mL
Concentration in Blood [3, 32]: 1319.1 ng/mL and 1666.5 ng/mL
Concentration in Blood [3, 36]: 60.5 ng/mL and 0.0 ng/mL (2×)
AUCinf [3, 37]: 10179 ng·h/mL and 15677 ng·h/mL
Cmax [3, 37]: 2537.0 ng/mL and 3366.0 ng/mL
Tmax [3, 37]: 2.0 h
T½ [3, 37]: 6 hours and 2 hours (2×)
SMILES: Cc1c(Cc2ccccc2S(=O)(=O)c2ccc(Cl)cc2)c2cc(F)ccc2n1CC(=O)O [Compound 2, 2-(3-(2-(4-chlorophenylsulfonyl)benzyl)-5-fluoro-2-methyl-1H-indol-1-yl)acetic acid]
Potency in inhibition of DK-PGD2-induced blood eosinophilia [2]: 10 µg/kg
Concentration in Blood [3, 33]: 519.6 ng/mL and 368.3 ng/mL and 1032.6 ng/mL
Concentration in Blood [3, 34]: 423.7 ng/mL and 186.7 ng/mL and 740.4 ng/mL
Concentration in Blood [3, 35]: 144.7 ng/mL and 28.2 ng/mL and 128.1 ng/mL
